From PMC8376405 (Protein Science : A Publication of the Protein Society, 2021) come the findings set out here.

The target in data set [1] is T1, CtTrpAB (Chlamydia trachomatis, UniProt O84172).
T1 sequence (O84172 1-392): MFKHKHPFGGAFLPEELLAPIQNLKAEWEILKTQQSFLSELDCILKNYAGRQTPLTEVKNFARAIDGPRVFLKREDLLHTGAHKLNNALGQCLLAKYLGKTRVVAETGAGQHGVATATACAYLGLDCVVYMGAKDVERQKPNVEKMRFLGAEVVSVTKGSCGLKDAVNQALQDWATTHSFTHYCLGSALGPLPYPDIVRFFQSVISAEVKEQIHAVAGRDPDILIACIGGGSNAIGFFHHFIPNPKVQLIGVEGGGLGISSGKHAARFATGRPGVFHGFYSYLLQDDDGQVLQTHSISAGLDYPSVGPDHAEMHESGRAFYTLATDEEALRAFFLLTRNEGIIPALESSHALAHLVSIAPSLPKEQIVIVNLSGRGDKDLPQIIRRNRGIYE
T1 sequence (O84173 1-253 partner): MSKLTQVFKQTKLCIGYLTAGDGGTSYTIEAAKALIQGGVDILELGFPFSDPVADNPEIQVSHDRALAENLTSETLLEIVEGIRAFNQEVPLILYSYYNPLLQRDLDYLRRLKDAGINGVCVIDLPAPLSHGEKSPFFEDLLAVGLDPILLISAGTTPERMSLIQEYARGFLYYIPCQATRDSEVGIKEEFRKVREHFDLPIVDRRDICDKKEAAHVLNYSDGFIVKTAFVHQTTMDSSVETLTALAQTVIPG
The data set can be described thus: X-ray crystal structure, […] Å. It is filed as binding. Conditions: covalent adduct to beta Lys84 in TrpB; sulfate in the serine site.

Substrate in data set [2]: c1ccc2[nH]ccc2c1
The data set can be described thus: purified protein. It is filed as biochemical, Chlamydia trachomatis. Conditions: L-Ser co-substrate, 40 uM PLP, 100 mM KCl, pH 8.0, room temperature.

As to `Cc1ncc(COP(=O)(O)O)c(C=O)c1O` [pyridoxal 5′-phosphate], in data set [1], the “X-ray crystal structure, 2.42 Å” value is on record as “The CtTrpB active site, marked by the PLP adduct to βLys84”.

B1: CtTrpAB (Chlamydia trachomatis D/UW-3/CX) (protein)
chain: MFKHKHPFGGAFLPEELLAPIQNLKAEWEILKTQQSFLSELDCILKNYAGRQTPLTEVKNFARAIDGPRVFLKREDLLHTGAHKLNNALGQCLLAKYLGKTRVVAETGAGQHGVATATACAYLGLDCVVYMGAKDVERQKPNVEKMRFLGAEVVSVTKGSCGLKDAVNQALQDWATTHSFTHYCLGSALGPLPYPDIVRFFQSVISAEVKEQIHAVAGRDPDILIACIGGGSNAIGFFHHFIPNPKVQLIGVEGGGLGISSGKHAARFATGRPGVFHGFYSYLLQDDDGQVLQTHSISAGLDYPSVGPDHAEMHESGRAFYTLATDEEALRAFFLLTRNEGIIPALESSHALAHLVSIAPSLPKEQIVIVNLSGRGDKDLPQIIRRNRGIYE
As for B1, in data set [2], the kcat amounted to 0.352 s⁻¹.
